Results on 14 molecules are retold here after US20190119193A1, “COMPOSITION FOR REGULATING PLANT GROWTH, METHOD FOR TREATING PLANTS THEREWITH, AND ACTIVE INGREDIENT THEREOF” (Ivan Aleksandrovich Starikov, priority 2016, published 2019).

Series [1] can be described thus: Dilution of DMSO solution (10 g/L) in water. The class given is physicochemical. Particulars: solution in DMSO (10 g/L) diluted in large quantities of water.
The test system of series [2] is spring wheat of “Zlata” variety. Kind of series: Field tests of GS-200 on wheat. The format is in vivo. The protocol: After that GS-200 were dissolved in dimethyl sulfoxide to give solution of 10 g/L concentration, then water was added to give aqueous solutions of GS-200 with concentrations of 5.3·10^−7 M, 1.7·10^−8 M, 5.3·10^−9 M, 1.7·10^−10 M, 5.3·10^−11 M, 1.7·10^−12 M.
The field tests of the obtained aqueous solutions of GS-200 on spring wheat of “Zlata” variety were carried out. The tests were carried out in agroclimatic zone I, on the experimental field of the Moscow RIA «Nemchinovka» Agricultural technology center's Laboratory for the Development of Grain Protection Systems (Moscow region, Odintsovo district, Novoivanovskoe, 2017), according to the method adopted for registration tests of plant growth regulators: Methodology guidelines for approval tests of new fertilizers, bioregulators and plant regulators. Moscow-Vladimir, 2009, p. 104; State procedure of strain tests for agricultural crop. Corny, leguminous and forage cultures. Edition 1, M., 1985—p. 269, Edition 2, M., 1989—p. 194; State procedure of strain tests for agricultural crop. Corny, leguminous and forage cultures. Edition 1, M., 1985—p. 269, Edition 2, M., 1989—p. 194; All-Union Standard 10-108-87; All-Union State Standard 26212-91; All-Union State Standard 26207-91; All-Union Standard 10-108-87.
The soil of the testing ground is sod-podzolic on the covering silt. The depth of the topsoil is 27-30 centimeters, humus content is up to 2.2%, pHsalt is about 5.8-5.9, labile phosphorus index is 135-145 mg/kg, and exchange potassium index is 100-110 mg/kg.
Tests were conducted from Apr. 24 to Aug. 17, 2017. The weather conditions of the whole growing period were highly unfavorable (normal amount of precipitations was exceeded more than one and a half times; the temperature was much lower than long-term annual average), which is a strong stress factor.
Control test—without treatment with growth regulators.
Area of experimental plots—50 m^2, accounting area—40 m^2. Fourfold replication of the experiments.
Preceding crop was winter wheat. Immediately after the autumn harvesting of winter crops the area was treated with disc harrow to a depth of 10-12 cm. Then, fall plowing to a depth of 18-21 cm by a reverse plow and harrowing were carried out.
Before seeding the test crop, the soil was fertilized with nitrogen-phosphorus-potassium fertilizer in a dose of N64P64K64. Date of sowing: Apr. 24, 2017. Seeding rate: 5.5 million of germinated grains per 1 hectare.
Before seeding, all the seeds were treated with “Vincite Forte” fungicide with a consumption rate of 0.8 L per ton of seeds, as well as the aqueous solution of GS-200 selected for the experiment with a consumption rate of 10 L per ton of seeds (this aqueous solution was directly used as a liquid for treatment) or without a growth regulator, depending on the experiment. The following concentrations of the GS-200 solutions were used for treatment: 5.3·10^−7 M, 5.3·10^−9 M, […].
At the tillering phase (May 29-30) the crops were sprayed against weeds with “Linthur” herbicide at a dose of 175.0 g/ha. In the beginning of booting stage (June 12-13), in order to prevent blasts and leaf diseases, crops were sprayed with tank mixture of insecticide “BoreiNeo” in a dose 0.5 L/ha and fungicide “Alto Super” in a dose 0.5 L/ha. In the beginning of ear stage (June 28) crops on the testing ground were sprayed with tank mixture of fungicide “Rakurs” (against Septoria blight and Fusarium blight) in a dose 0.5 L/ha and a solution of GS-200 in a dose 300 L/ha. Spraying with aqueous solutions of GS-200 was carried out for all variants, where GS-200 were used for seed treatment. The concentration of the spraying solution was one-thirtieth of the concentration of the solution previously used for treatment of seeds: 1.7·10^−8 M, 1.7·10^−10 M and 1.7·10^−12 M respectively.
Harvesting of experimental plots was carried out on August 17, before harvesting test sheaves of 0.25 m^2 of each variant of the experiment were selected for structural analysis. […]

Setting [3] is: seeds treated 5.3 · 10^−7 M, sprayed 1.7·10^−8 M.
Setting [4] is: seeds treated 5.3 · 10^−9 M, sprayed 1.7·10^−10 M.
The mark [5] stands for this setting: seeds treated 5.3 · 10^−11 M, sprayed 1.7·10^−12 M.

On to `COC(=O)C(=O)C(C)C(=O)OC` (centres unmarked) [GS-171, Dimethyl 2-methyl-3-oxobutanedioate], for which the “Appearance on dilution in water” value in series [1] is on record as “clear solution”.

With `COC(=O)C(=O)C(Cl)C(=O)OC` (centres unmarked) [GS-172, Dimethyl 2-chloro-3-oxobutanedioate], the “Appearance on dilution in water” value in series [1] is “clear solution”.

With `CCOC(=O)C(=O)C(Sc1ccc(C)cc1)C(=O)OCC` (centres unmarked) [GS-184, Diethyl 2-[(4-Methylphenyl)Sulfanyl]-3-Oxobutanedioate], the “Appearance on dilution in water” value in series [1] was “clear solution”.

`CCOC(=O)CC(=O)C(=O)OCC` [GS-195, Diethyl ester of oxaloacetic acid]: the “Appearance on dilution in water” value in series [1] is given as “clear solution”.

For `CCOC(=O)CC(=O)C(=O)O` [GS-197, 4-Ethoxy-2,4-dioxobutanoic acid], in series [1], the “Appearance on dilution in water” value is on record as “clear solution”.

Turning to `CCOC(=O)C(=O)C(C(=O)OCC)c1ccccc1` (centres unmarked) [GS-199, Diethyl 2-oxo-3-phenylbutanedioate], the “Appearance on dilution in water” value in series [1] is recorded as “clear solution”.

For `CCOC(=O)C(=O)CC(=O)N(C)C` [GS-200, Ethyl 4-(dimethylamino)-2,4-dioxobutanoat], in series [1], the “Appearance on dilution in water” value is given as “clear solution”. Further, in series [2] (setting [3]), the 1000 grains weight is listed as 45.4 g, the Gluten was determined as 27.5 % dry basis, the Main head length was 8.24 cm and the “Number of seeds from main head” value is listed as 38.84 pcs. Further, in series [2] (setting [3]), the “Number of spikelets in main head” value is 15.88 pcs, the Number of stems amounted to 450 pcs/m^2, the “Number of yielding stems” value is 398 pcs/m^2 and the Plant height is listed as 121.1 cm. Moreover, in series [2] (setting [3]), the Productive tilling capacity is given as 1.46, the “Protein (N 5.7)” value is 12.21 % dry basis, the Starch came to 58.40 % dry basis and the Total tilling capacity worked out at 1.65. In series [2] (setting [3]), the “Weight of grains from main head” value is 1.89 g; the Yield is on record as 5.34 t/ha; the “Yield, % (comparing to control)” value came to 124.8%. In addition, in series [2] (setting [4]), the 1000 grains weight is 47.2 g, the Gluten was 26.0 % dry basis, the Main head length came to 8.20 cm and the “Number of seeds from main head” value is recorded as 37.40 pcs. In addition, in series [2] (setting [4]), the “Number of spikelets in main head” value is on record as 15.56 pcs, the Number of stems amounted to 462 pcs/m^2, the “Number of yielding stems” value came to 388 pcs/m^2 and the Plant height is 118.5 cm. In series [2] (setting [4]), the Productive tilling capacity is listed as 1.53, the “Protein (N 5.7)” value is recorded as 11.56 % dry basis, the Starch is recorded as 58.66 % dry basis and the Total tilling capacity stood at 1.82. Moreover, in series [2] (setting [4]), the “Weight of grains from main head” value worked out at 1.90 g; the Yield is 5.37 t/ha; the “Yield, % (comparing to control)” value stood at 125.5%. Moreover, in series [2] (setting [5]), the 1000 grains weight came to 44.1 g, the Gluten was determined as 26.6 % dry basis, the Main head length amounted to 7.56 cm and the “Number of seeds from main head” value came out at 34.28 pcs. Also, in series [2] (setting [5]), the “Number of spikelets in main head” value was 15.56 pcs, the Number of stems worked out at 398 pcs/m^2, the “Number of yielding stems” value is on record as 360 pcs/m^2 and the Plant height is on record as 118.7 cm. In addition, in series [2] (setting [5]), the Productive tilling capacity stood at 1.71, the “Protein (N 5.7)” value was 11.82 % dry basis, the Starch is 59.05 % dry basis and the Total tilling capacity is recorded as 1.90. Moreover, in series [2] (setting [5]), the “Weight of grains from main head” value is 1.60 g; the Yield was 4.65 t/ha; the “Yield, % (comparing to control)” value is reported as 108.6%.

Turning to `CCOC(=O)C(=O)CC(=O)N(CC)CC` [GS-202, Ethyl 4-(diethylamino)-2,4-dioxobutanoat], in series [1], the “Appearance on dilution in water” value is given as “clear solution”.

`CCN(CC)C(=O)CC(=O)C(N)=O` [GS-203, N^4,N^4-Diethyl-2-oxobutanediamide]: in series [1], the “Appearance on dilution in water” value is given as “clear solution”.

Turning to `CN(C)C(=O)C(=O)CC(=O)N(C)CCO` [GS-214, N^4-(2-hydroxyethyl)-N^1,N^1,N^4-trimethyl-2-oxobutanediamide], in series [1], the “Appearance on dilution in water” value is on record as “clear solution”.

For `CCOC(=O)C(=O)CC(C)=O` [GS-300, Ethyl 2,4-dioxovalerate], the “Appearance on dilution in water” value in series [1] is reported as “clear solution”.

`CCOC(=O)C(=O)CC(=O)c1ccccc1` [GS-310, Ethyl 2,4-dioxo-4-phenylbutanoate]: the “Appearance on dilution in water” value in series [1] is reported as “clear solution”.

Turning to `CCOC(=O)C(=O)CC(=O)c1c[nH]c2ccccc12` [GS-312, Ethyl 4-(1H-indol-3-yl)-2,4-dioxobutanoate], in series [1], the “Appearance on dilution in water” value was “bright yellow fluorescent suspension”.

In the case of `COC(=O)C1CNC(=O)C1=O` (centres unmarked) [GS-500, Methyl 4,5-dioxopyrrolidine-3-carboxylate], the “Appearance on dilution in water” value in series [1] is on record as “clear solution”.
